One assay relates to human plasma renin. As to the kind of experiment: human plasma renin IC50 determination. To be noted: against human plasma renin, pH 7.4. In kind it is biochemical. On the procedure:
The following method was used for in vitro evaluation of the renin inhibitors of Formuta t: • The human plasma renin IC50 values for inhibitors of Formula I were determined at pH 7.4 following the procedure described in J. Boger, L.S. Payne, D.S. Perlow, N.S. Lohr, M. Poe, E.H. Blaine, E.H. Elm, T.W. Schorn, B.I. Lamont, T.-Y. Lin, M. Kawai, D.H. Rich and D.F. Veber, J. Med. Chem., 28, 1779 (1985).

The test system of assay [1] is conscious sodium-deficient Rhesus monkeys. The assay can be described thus: intravenous evaluation of renin inhibitors in conscious sodium-deficient Rhesus monkeys (blood pressure lowering). In kind it is in vivo. To be noted: i.v. bolus injection. An excerpt:
The following methods were used for in vivo evaluation of the renin inhibitors of Formua I : Intravenous evaluation of renin inhibitors in conscious sodium-deficient Rhesus monkeys : Rhesus monkeys, male and female, weighing 2.6-4.5 Kg, were surgically prepared with chronic arterial and venous catheters and vascular access ports for direct monitoring of mean arterial pressure (MAPI) and heart rate (HR). The animals were maintained on a low sodium diet (1.2 mmol Nalday) plus fruit for a week, and administered LASIX (furosemide) at 2.5 mg/Kg, intramuscularly the evening prior to the experiment The animals had been trained to sit quietly in the chairs with waterAD LIBIUM for the duration of the experiment. The inhibitors were administered by bolus injection using 0.5% acetic acid-5% dextrose in water as the vehicle (0.4 ml/Kg), and MAP and HRwere measured. Blood samples were withdrawn at different time intervals beginning at the nadir of hypotensive response. PRA was determined as described above. […] A projected ED50 dose for each inhibitorwas calculated using the following formula: ED50 (Test Inhibitor, umoles/Kg) = ED50 (SCRIP) X [IC50 (Test Inhibitor)/IC50 (SCRIP)], where the IC50 values were determined against human plasma renin. […] Percent inhibition of monkey PRA, changes in MAP and HR were calculated and plotted against time. […]

Square brackets hold non-standard residues; d marks the D form. Peptide text beside a SMILES is read from it. * marks the point of attachment. Sta = CC(C)C[C@H](N)[C@@H](O)CC(=O)O; Isovaleryl = CC(C)CC(=O)*

The results in this text go back to patent publication EP0431972A2, “Macrocyclic lactones having renin inhibiting properties” (MERCK & CO. INC., priority 1989, dated 1991).

Usually IC50 stands for the point on the concentration scale where inhibition reaches its midpoint. A higher IC50 goes with a need for much substance.

With `CC(C)CC(=O)N[C@@H](Cc1c[nH]cn1)C(=O)N1CCC[C@H]1C(=O)N[C@@H](Cc1ccccc1)C(=O)N[C@@H](Cc1c[nH]cn1)C(=O)N[C@@H](CC(C)C)[C@@H](O)CC(=O)N[C@@H](CC(C)C)C(=O)N[C@@H](Cc1ccccc1)C(N)=O` [SCRIP, Iva-His-Pro-Phe-His-Sta-Leu-Phe-NH2] (Isovaleryl-HPFH[Sta]LF-NH2), the IC50 with human plasma renin was 3.7 nM. Besides, the “i.v. dose of the standard inhibitor required to lower blood pressure by 50% of the maximal response (ED50)” value in assay [1] came to 0.039 µmol/kg.
